The supplement of paper PMC10627819

Legend:
S. pneumoniae D39V [1] = assay: fitness (endpoint OD595 vs no drug) (fraction); higher = more growth
How it was run: (§1)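 Bacterial fitness was scored as optical density at the stationary-phase transition relative to the robust mean of no-drug control wells. Scores are capped at 1. The growth data were OD595 readings every 30 min for 14 h at 37 °C, background-subtracted against the first reading, from 384-well plates inoculated at OD595 0.01 in TSB, LB Lennox or CY.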

B. subtilis 168 [2] = assay: as above
How it was run: as §1

S. aureus DSM 20231 = assay: Bliss interaction score (quartile over a dose matrix) (fitness difference); higher = more antagonism (negative = synergy)
How it was run: (§2)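 Fitness was OD595 at entry into stationary phase divided by the plate's robust no-drug mean and capped at 1; single-drug fitness was inferred from combination data. The Bliss score is observed minus expected (product) fitness, summarised by quartiles over technical, biological and donor/recipient replicates.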

S. aureus Newman = assay: as above
How it was run: as §2

S. pneumoniae D39V [3] = assay: as above
How it was run: as §2

B. subtilis 168 [4] = assay: as above
How it was run: as §2
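Throughout, for Bliss interaction score (quartile over a dose matrix): first quartile when negative (synergy) and third quartile when positive (antagonism).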

COc1cccc2c1C(=O)c1c(O)c3c(c(O)c1C2=O)C[C@@](O)(C(=O)CO)C[C@@H]3O[C@H]1C[C@H](N)[C@H](O)[C@H](C)O1 [Doxorubicin] + CN(C)C(=O)C(CCN1CCC(O)(c2ccc(Cl)cc2)CC1)(c1ccccc1)c1ccccc1 [Loperamide]
Details	fitness
B. subtilis 168 [2], first compound 0.625 µg/mL, partner 50 µg/mL	0.0285
B. subtilis 168 [2], first compound 0.625 µg/mL, partner 100 µg/mL	0.0284
B. subtilis 168 [2], first compound 1.25 µg/mL, partner 50 µg/mL	0.0281
B. subtilis 168 [2], first compound 1.25 µg/mL, partner 100 µg/mL	0.0427
B. subtilis 168 [2], first compound 2.5 µg/mL, partner 25 µg/mL	0.0131
B. subtilis 168 [2], first compound 2.5 µg/mL, partner 50 µg/mL	0.0232
B. subtilis 168 [2], first compound 2.5 µg/mL, partner 100 µg/mL	0.019
S. pneumoniae D39V [1], first compound 0.25 µg/mL, partner 17.14 µg/mL	0.905
S. pneumoniae D39V [1], first compound 0.25 µg/mL, partner 20 µg/mL	≥ 1
S. pneumoniae D39V [1], first compound 0.25 µg/mL, partner 34.28 µg/mL	0.884
S. pneumoniae D39V [1], first compound 0.25 µg/mL, partner 40 µg/mL	≥ 1
S. pneumoniae D39V [1], first compound 0.5 µg/mL, partner 17.14 µg/mL	0.915
S. pneumoniae D39V [1], first compound 0.5 µg/mL, partner 20 µg/mL	≥ 1
S. pneumoniae D39V [1], first compound 0.5 µg/mL, partner 34.28 µg/mL	0.899
S. pneumoniae D39V [1], first compound 0.5 µg/mL, partner 40 µg/mL	≥ 1
S. pneumoniae D39V [1], first compound 1 µg/mL, partner 17.14 µg/mL	0.912
S. pneumoniae D39V [1], first compound 1 µg/mL, partner 20 µg/mL	0.991
S. pneumoniae D39V [1], first compound 1 µg/mL, partner 34.28 µg/mL	0.902
S. pneumoniae D39V [1], first compound 1 µg/mL, partner 40 µg/mL	0.967

S. pneumoniae D39V [1], partner 68.57 µg/mL, one replicate
Details	fitness
first compound 0.25 µg/mL	0.87
first compound 0.5 µg/mL	0.872
first compound 1 µg/mL	0.929

Details	Bliss interaction score
B. subtilis 168 [4]	-0.228
S. aureus DSM 20231	-0.0983
S. aureus Newman	-0.0664
S. pneumoniae D39V [3]	0.0787

COc1cccc2c1C(=O)c1c(O)c3c(c(O)c1C2=O)C[C@@](O)(C(=O)CO)C[C@@H]3O[C@H]1C[C@H](N)[C@H](O)[C@H](C)O1 [Doxorubicin] + C[C@H]1COc2c(N3CCN(C)CC3)c(F)cc3c(=O)c(C(=O)O)cn1c23 [Levofloxacin]
Details	fitness
B. subtilis 168 [2], first compound 0.625 µg/mL, partner 0.002 µg/mL	0.93
B. subtilis 168 [2], first compound 0.625 µg/mL, partner 0.0039 µg/mL	0.927
B. subtilis 168 [2], first compound 0.625 µg/mL, partner 0.0312 µg/mL	0.0411
B. subtilis 168 [2], first compound 0.625 µg/mL, partner 0.0625 µg/mL	0.0463
B. subtilis 168 [2], first compound 0.625 µg/mL, partner 0.125 µg/mL	0.0495
B. subtilis 168 [2], first compound 1.25 µg/mL, partner 0.002 µg/mL	0.901
B. subtilis 168 [2], first compound 1.25 µg/mL, partner 0.0039 µg/mL	0.873
B. subtilis 168 [2], first compound 1.25 µg/mL, partner 0.0312 µg/mL	0.0455
B. subtilis 168 [2], first compound 1.25 µg/mL, partner 0.0625 µg/mL	0.0566
B. subtilis 168 [2], first compound 1.25 µg/mL, partner 0.125 µg/mL	0.0562
B. subtilis 168 [2], first compound 2.5 µg/mL, partner 0.002 µg/mL	0.791
B. subtilis 168 [2], first compound 2.5 µg/mL, partner 0.0039 µg/mL	0.73
B. subtilis 168 [2], first compound 2.5 µg/mL, partner 0.0312 µg/mL	0.031
B. subtilis 168 [2], first compound 2.5 µg/mL, partner 0.0625 µg/mL	0.0389
B. subtilis 168 [2], first compound 2.5 µg/mL, partner 0.125 µg/mL	0.0379
S. pneumoniae D39V [1], first compound 0.25 µg/mL, partner 0.1725 µg/mL	0.853
S. pneumoniae D39V [1], first compound 0.25 µg/mL, partner 0.2 µg/mL	0.904
S. pneumoniae D39V [1], first compound 0.25 µg/mL, partner 0.345 µg/mL	0.776
S. pneumoniae D39V [1], first compound 0.25 µg/mL, partner 0.4 µg/mL	0.834
S. pneumoniae D39V [1], first compound 0.25 µg/mL, partner 0.69 µg/mL	0.509
S. pneumoniae D39V [1], first compound 0.5 µg/mL, partner 0.1725 µg/mL	0.941
S. pneumoniae D39V [1], first compound 0.5 µg/mL, partner 0.2 µg/mL	0.942
S. pneumoniae D39V [1], first compound 0.5 µg/mL, partner 0.345 µg/mL	0.871
S. pneumoniae D39V [1], first compound 0.5 µg/mL, partner 0.4 µg/mL	0.831
S. pneumoniae D39V [1], first compound 0.5 µg/mL, partner 0.69 µg/mL	0.571
S. pneumoniae D39V [1], first compound 1 µg/mL, partner 0.1725 µg/mL	0.875
S. pneumoniae D39V [1], first compound 1 µg/mL, partner 0.2 µg/mL	0.854
S. pneumoniae D39V [1], first compound 1 µg/mL, partner 0.345 µg/mL	0.798
S. pneumoniae D39V [1], first compound 1 µg/mL, partner 0.4 µg/mL	0.736
S. pneumoniae D39V [1], first compound 1 µg/mL, partner 0.69 µg/mL	0.548
S. pneumoniae D39V [1], first compound 1 µg/mL, partner 0.8 µg/mL	0.342

fitness, B. subtilis 168 [2], one replicate
Details	first compound 0.625 µg/mL	first compound 1.25 µg/mL	first compound 2.5 µg/mL
partner 0.001 µg/mL	≥ 1	0.98	0.943
partner 0.0078 µg/mL	0.888	0.894	0.567

Details	Bliss interaction score
B. subtilis 168 [4]	0.0423
S. aureus DSM 20231	0.0678
S. aureus Newman	0.133
S. pneumoniae D39V [3]	-0.0424

C[C@H]1c2cccc(O)c2C(=O)C2=C(O)[C@]3(O)C(=O)C(C(N)=O)=C(O)[C@@H](N(C)C)[C@@H]3[C@@H](O)[C@@H]21 [Doxycycline] + CC1=C\[C@@H](O)CC(=O)Cc2nc(co2)C(=O)N2CCC=C2C(=O)O[C@H](C(C)C)[C@H](C)/C=C/C(=O)NC\C=C\1 [Virginiamycin M1]
S. pneumoniae D39V [1], one replicate
Details	fitness
first compound 0.003875 µg/mL, partner 0.5 µg/mL	≥ 1
first compound 0.003875 µg/mL, partner 1 µg/mL	≥ 1
first compound 0.003875 µg/mL, partner 2 µg/mL	≥ 1
first compound 0.00775 µg/mL, partner 0.5 µg/mL	0.995
first compound 0.00775 µg/mL, partner 1 µg/mL	≥ 1
first compound 0.00775 µg/mL, partner 2 µg/mL	≥ 1
first compound 0.0155 µg/mL, partner 0.15 µg/mL	0.887
first compound 0.0155 µg/mL, partner 0.3 µg/mL	0.823
first compound 0.031 µg/mL, partner 0.15 µg/mL	0.878
first compound 0.031 µg/mL, partner 0.3 µg/mL	0.819
first compound 0.062 µg/mL, partner 0.15 µg/mL	0.793
first compound 0.062 µg/mL, partner 0.3 µg/mL	0.762

fitness
Details	first compound 0.0155 µg/mL	first compound 0.02 µg/mL	first compound 0.031 µg/mL	first compound 0.04 µg/mL	first compound 0.062 µg/mL	first compound 0.08 µg/mL
B. subtilis 168 [2], partner 0.0625 µg/mL	–	0.898	–	0.805	–	0.572
B. subtilis 168 [2], partner 0.125 µg/mL	–	0.899	–	0.726	–	0.458
B. subtilis 168 [2], partner 0.25 µg/mL	–	0.936	–	0.806	–	0.491
S. pneumoniae D39V [1], partner 0.5 µg/mL	0.968	–	0.902	–	0.813	–
S. pneumoniae D39V [1], partner 1 µg/mL	0.998	–	0.847	–	0.831	–
S. pneumoniae D39V [1], partner 2 µg/mL	0.904	–	0.794	–	0.758	–

Details	Bliss interaction score
B. subtilis 168 [4]	0.0353
S. aureus DSM 20231	-0.151
S. aureus Newman	-0.0791
S. pneumoniae D39V [3]	0.0434

C[C@H]1c2cccc(O)c2C(=O)C2=C(O)[C@]3(O)C(=O)C(C(N)=O)=C(O)[C@@H](N(C)C)[C@@H]3[C@@H](O)[C@@H]21 [Doxycycline] + CC(=O)NC[C@H]1CN(c2ccc(N3CCOCC3)c(F)c2)C(=O)O1 [Linezolid]
fitness, one replicate
Details	first compound 0.003875 µg/mL	first compound 0.00775 µg/mL	first compound 0.02 µg/mL	first compound 0.031 µg/mL	first compound 0.04 µg/mL	first compound 0.062 µg/mL	first compound 0.08 µg/mL
B. subtilis 168 [2], partner 0.0625 µg/mL	–	–	0.775	–	0.51	–	0.0619
S. pneumoniae D39V [1], partner 0.2 µg/mL	0.796	0.774	–	0.668	–	0.465	–
S. pneumoniae D39V [1], partner 0.4 µg/mL	0.7	0.65	–	0.4	–	0.241	–
S. pneumoniae D39V [1], partner 0.8 µg/mL	0.353	0.37	–	0.24	–	0.116	–

Details	fitness
B. subtilis 168 [2], first compound 0.02 µg/mL, partner 0.5 µg/mL	0.0524
B. subtilis 168 [2], first compound 0.04 µg/mL, partner 0.5 µg/mL	0.0497
B. subtilis 168 [2], first compound 0.08 µg/mL, partner 0.25 µg/mL	0.0313
B. subtilis 168 [2], first compound 0.08 µg/mL, partner 0.5 µg/mL	0.0418
S. pneumoniae D39V [1], first compound 0.0155 µg/mL, partner 0.105 µg/mL	0.702
S. pneumoniae D39V [1], first compound 0.0155 µg/mL, partner 0.2 µg/mL	0.776
S. pneumoniae D39V [1], first compound 0.0155 µg/mL, partner 0.21 µg/mL	0.595
S. pneumoniae D39V [1], first compound 0.0155 µg/mL, partner 0.4 µg/mL	0.575
S. pneumoniae D39V [1], first compound 0.0155 µg/mL, partner 0.42 µg/mL	0.406
S. pneumoniae D39V [1], first compound 0.0155 µg/mL, partner 0.8 µg/mL	0.325
S. pneumoniae D39V [1], first compound 0.031 µg/mL, partner 0.105 µg/mL	0.694
S. pneumoniae D39V [1], first compound 0.031 µg/mL, partner 0.21 µg/mL	0.602
S. pneumoniae D39V [1], first compound 0.031 µg/mL, partner 0.42 µg/mL	0.297
S. pneumoniae D39V [1], first compound 0.062 µg/mL, partner 0.105 µg/mL	0.606
S. pneumoniae D39V [1], first compound 0.062 µg/mL, partner 0.21 µg/mL	0.477
S. pneumoniae D39V [1], first compound 0.062 µg/mL, partner 0.42 µg/mL	0.207

Details	Bliss interaction score
B. subtilis 168 [4]	-0.137
S. aureus DSM 20231	-0.0188
S. aureus Newman	-0.0282
S. pneumoniae D39V [3]	-0.197
